The target in assay [1] is T1, Endonuclease 8-like 2 (Homo sapiens) (UniProt Q969S2).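 Further: fluorescence at 594 nm reports NEIL2 cutting and release of a quenched double-stranded DNA oligo substrate, reduced signal read as inhibition.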
T1 sequence (whole entry): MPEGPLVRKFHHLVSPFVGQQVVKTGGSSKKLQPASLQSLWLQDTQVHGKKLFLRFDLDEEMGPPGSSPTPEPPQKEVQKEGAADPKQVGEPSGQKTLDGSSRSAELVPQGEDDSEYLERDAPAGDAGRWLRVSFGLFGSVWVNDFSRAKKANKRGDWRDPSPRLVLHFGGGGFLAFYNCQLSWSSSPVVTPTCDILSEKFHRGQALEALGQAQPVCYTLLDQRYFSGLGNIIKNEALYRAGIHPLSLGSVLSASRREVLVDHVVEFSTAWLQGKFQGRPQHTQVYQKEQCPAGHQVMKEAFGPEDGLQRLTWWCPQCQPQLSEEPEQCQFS
Particulars: Hit No.
Description: Inhibition of NEIL2 by quantifying inhibition of NEIL2-mediated cleavage and dissociation of quenched duplex DNA oligonucleotides, measured as fluorescence at 594 nm.

Assay [2] concerns the target Endonuclease 8-like 1 (Homo sapiens) (UniProt Q96FI4). Particulars: Hit No.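 Further: fluorescence at 594 nm from quenched duplex DNA oligonucleotides released by NEIL1 cleavage and strand separation, reported as reduction of this enzyme activity.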
Description: Inhibition of NEIL1 by quantifying inhibition of NEIL1-mediated cleavage and dissociation of quenched duplex DNA oligonucleotides, measured as fluorescence at 594 nm.
Assay [3] deals with T2, Endonuclease III-like protein 1 (Homo sapiens) (UniProt P78549).
T2 sequence (whole entry): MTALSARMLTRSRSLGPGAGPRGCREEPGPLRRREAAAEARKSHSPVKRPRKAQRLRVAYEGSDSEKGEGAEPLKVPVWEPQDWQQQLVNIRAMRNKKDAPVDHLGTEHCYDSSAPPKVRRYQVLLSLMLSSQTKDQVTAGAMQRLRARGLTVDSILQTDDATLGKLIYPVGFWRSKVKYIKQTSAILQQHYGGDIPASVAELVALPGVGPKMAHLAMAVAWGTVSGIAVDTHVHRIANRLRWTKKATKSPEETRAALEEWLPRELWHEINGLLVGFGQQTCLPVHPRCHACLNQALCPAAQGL
Particulars: Compound Concentration 10.0 uM, Hit No.
Description: Inhibition of NTHL1 by quantifying inhibition of NTHL1-mediated cleavage and dissociation of quenched duplex DNA oligonucleotides, measured as fluorescence at 594 nm.

The target of assay [4] is T3, Single-strand selective monofunctional uracil DNA glycosylase (Homo sapiens) (UniProt Q53HV7).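 Further: enzymatic SMUG1 assay coupled with APE1, reading fluorescence at 594 nm released when a quenched double-stranded DNA oligonucleotide substrate is cleaved and separated.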
T3 sequence (whole entry): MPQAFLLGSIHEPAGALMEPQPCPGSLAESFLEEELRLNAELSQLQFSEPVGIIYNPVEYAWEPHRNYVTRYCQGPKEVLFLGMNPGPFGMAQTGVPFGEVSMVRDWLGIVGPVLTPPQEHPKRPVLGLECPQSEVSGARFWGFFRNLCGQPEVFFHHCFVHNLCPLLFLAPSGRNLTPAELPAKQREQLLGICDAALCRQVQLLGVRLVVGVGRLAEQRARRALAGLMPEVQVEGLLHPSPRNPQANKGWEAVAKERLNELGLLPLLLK
Particulars: Hit No.
Description: Inhibition of SMUG1 by quantifying inhibition of SMUG1-mediated cleavage and dissociation of quenched duplex DNA oligonucleotides, measured as fluorescence at 594 nm. To generate a functional strand incision and increase turn-over this assay is coupled to APE1.

The target in assay [5] is Uracil-DNA glycosylase (Homo sapiens) (UniProt P13051). Particulars: Hit No.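 Further: UNG excision on a quenched double-stranded DNA oligo probe, with APE1 added for strand incision and turnover, read as fluorescence at 594 nm as strands separate.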
Description: Inhibition of UNG by quantifying inhibition of UNG-mediated cleavage and dissociation of quenched duplex DNA oligonucleotides, measured as fluorescence at 594 nm. To generate a functional strand incision and increase turn-over this assay is coupled to APE1.
In assay [6] the target is Methyl-CpG-binding domain protein 4 (Homo sapiens) (UniProt O95243). The note with it: Hit No.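 Further: MBD4 activity read as fluorescence at 594 nm from cleavage and release of a quenched duplex DNA oligonucleotide, with APE1 coupled to incise the strand and raise turnover.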
Description: Inhibition of MBD4 by quantifying inhibition of MBD4-mediated cleavage and dissociation of quenched duplex DNA oligonucleotides, measured as fluorescence at 594 nm. To generate a functional strand incision and increase turn-over this assay is coupled to APE1.
Assay [7] concerns the target N-glycosylase/DNA lyase (Homo sapiens) (UniProt O15527). The note with it: Hit No.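 Further: OGG1 cleavage of a quenched duplex DNA oligonucleotide, coupled to APE1 for strand incision, read as fluorescence at 594 nm.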
Description: Inhibition of OGG1 by quantifying inhibition of OGG1-mediated cleavage and dissociation of quenched duplex DNA oligonucleotides, measured as fluorescence at 594 nm. To generate a functional strand incision and increase turn-over this assay is coupled to APE1.
For assay [8], the target named is G/T mismatch-specific thymine DNA glycosylase (Homo sapiens) (UniProt Q13569). The note with it: Hit No.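 Further: human TDG cleavage of quenched duplex DNA oligonucleotides coupled to APE1, strand release read as fluorescence at 594 nm, inhibition of TDG activity.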
Description: Inhibition of TDG by quantifying inhibition of TDG-mediated cleavage and dissociation of quenched duplex DNA oligonucleotides, measured as fluorescence at 594 nm. To generate a functional strand incision and increase turn-over this assay is coupled to APE1.

The structures appear in SMILES notation.

Sequence of Methyl-CpG-binding domain protein 4 (Homo sapiens) (O95243 whole entry, the tested form may be a part): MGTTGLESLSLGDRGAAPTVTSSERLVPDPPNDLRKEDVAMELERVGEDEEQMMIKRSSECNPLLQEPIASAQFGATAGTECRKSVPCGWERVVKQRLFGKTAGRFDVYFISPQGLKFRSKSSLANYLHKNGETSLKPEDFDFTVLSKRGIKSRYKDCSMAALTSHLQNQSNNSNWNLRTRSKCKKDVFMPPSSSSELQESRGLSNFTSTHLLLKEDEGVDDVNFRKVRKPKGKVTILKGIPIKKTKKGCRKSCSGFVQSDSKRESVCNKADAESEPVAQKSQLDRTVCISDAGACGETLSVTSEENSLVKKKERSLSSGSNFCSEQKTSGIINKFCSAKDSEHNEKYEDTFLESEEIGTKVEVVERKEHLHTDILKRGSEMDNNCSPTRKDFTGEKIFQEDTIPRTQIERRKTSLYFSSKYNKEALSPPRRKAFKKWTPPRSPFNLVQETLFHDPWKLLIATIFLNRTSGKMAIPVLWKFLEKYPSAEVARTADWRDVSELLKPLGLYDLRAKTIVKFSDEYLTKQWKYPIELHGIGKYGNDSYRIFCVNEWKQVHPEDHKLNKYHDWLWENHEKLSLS
Sequence of G/T mismatch-specific thymine DNA glycosylase (Homo sapiens) (Q13569 whole entry): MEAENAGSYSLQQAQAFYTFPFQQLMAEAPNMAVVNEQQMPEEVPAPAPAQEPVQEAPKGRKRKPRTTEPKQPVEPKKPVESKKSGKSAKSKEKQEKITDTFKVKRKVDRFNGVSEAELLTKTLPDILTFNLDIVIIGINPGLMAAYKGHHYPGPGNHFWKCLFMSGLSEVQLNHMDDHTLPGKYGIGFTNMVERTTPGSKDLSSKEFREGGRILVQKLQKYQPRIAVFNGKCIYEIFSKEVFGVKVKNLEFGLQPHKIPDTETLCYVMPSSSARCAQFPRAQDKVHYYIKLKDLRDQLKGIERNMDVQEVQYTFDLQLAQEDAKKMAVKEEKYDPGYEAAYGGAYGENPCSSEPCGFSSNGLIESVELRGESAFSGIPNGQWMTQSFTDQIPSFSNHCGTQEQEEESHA
Sequence of Uracil-DNA glycosylase (Homo sapiens) (P13051 whole entry, the tested form may be a part): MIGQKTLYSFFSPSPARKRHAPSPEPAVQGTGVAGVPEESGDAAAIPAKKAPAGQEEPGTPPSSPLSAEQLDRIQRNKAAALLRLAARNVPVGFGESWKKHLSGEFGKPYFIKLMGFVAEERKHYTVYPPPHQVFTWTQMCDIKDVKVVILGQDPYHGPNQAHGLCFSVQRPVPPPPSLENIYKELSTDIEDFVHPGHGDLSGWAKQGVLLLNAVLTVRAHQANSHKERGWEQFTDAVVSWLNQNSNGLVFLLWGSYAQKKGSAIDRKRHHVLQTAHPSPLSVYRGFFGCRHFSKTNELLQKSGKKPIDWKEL
Sequence of Endonuclease 8-like 1 (Homo sapiens) (Q96FI4 whole entry): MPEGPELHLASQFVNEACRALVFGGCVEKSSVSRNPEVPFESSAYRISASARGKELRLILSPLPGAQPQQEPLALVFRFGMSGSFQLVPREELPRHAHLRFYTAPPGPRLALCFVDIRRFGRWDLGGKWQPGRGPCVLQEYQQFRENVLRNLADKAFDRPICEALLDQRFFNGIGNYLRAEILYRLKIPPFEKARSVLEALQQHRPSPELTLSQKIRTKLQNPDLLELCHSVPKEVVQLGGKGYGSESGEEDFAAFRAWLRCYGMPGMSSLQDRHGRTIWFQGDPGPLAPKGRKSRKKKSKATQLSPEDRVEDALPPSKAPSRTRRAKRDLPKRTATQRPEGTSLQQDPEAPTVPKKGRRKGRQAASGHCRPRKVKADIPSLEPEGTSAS
Sequence of N-glycosylase/DNA lyase (Homo sapiens) (O15527 whole entry): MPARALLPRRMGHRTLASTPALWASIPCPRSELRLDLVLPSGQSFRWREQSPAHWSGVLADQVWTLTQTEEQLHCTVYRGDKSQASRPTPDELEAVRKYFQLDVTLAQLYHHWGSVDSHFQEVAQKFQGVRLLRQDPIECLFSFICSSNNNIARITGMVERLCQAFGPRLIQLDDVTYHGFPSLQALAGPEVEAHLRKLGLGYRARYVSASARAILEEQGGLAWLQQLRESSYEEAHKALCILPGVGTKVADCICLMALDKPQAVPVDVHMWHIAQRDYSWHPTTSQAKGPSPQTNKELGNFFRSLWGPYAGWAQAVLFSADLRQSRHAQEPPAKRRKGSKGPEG

For `O=c1[nH]c(=O)c2nc3ccccc3nc2[nH]1`, the inhibition – broadly, the change of the read-out against control, counted positive when it falls – in assay [1] (Compound Concentration 10.0 uM) came to 5.26%; in assay [2] (Compound Concentration 10.0 uM), 4.1%; in assay [3], 14.4%.
Turning to `CCNC(=O)c1cc2c(N3CCOCC3C)ccnc2[nH]1` (stereo unspecified), the inhibition is 15.1% in assay [4] (Compound Concentration 10.0 uM); -7.12% in assay [1] (Compound Concentration 10.0 uM); -3.94% in assay [5] (Compound Concentration 10.0 uM); 52.5% in assay [6] (Compound Concentration 10.0 uM); -6.36% in assay [7] (Compound Concentration 10.0 uM); 58.1% in assay [8] (Compound Concentration 10.0 uM).
As to `O=C(NCCN1CCC(n2c(=O)[nH]c3cc(Cl)ccc32)CC1)c1ccc(F)cc1`, the inhibition in assay [1] (Compound Concentration 10.0 uM) is 1.51%; in assay [2] (Compound Concentration 10.0 uM), 5.43%; in assay [8] (Compound Concentration 10.0 uM) it was -0.00915%; in assay [3], -1.74%.
Consider `Cn1ncc2c(-c3c(-c4ccc(F)cn4)nn4c3COC(C)(C)C4)ccnc21`, for which the inhibition in assay [4] (Compound Concentration 10.0 uM) is 3.56%; in assay [1] (Compound Concentration 10.0 uM), -5.34%; in assay [5] (Compound Concentration 10.0 uM), 1.59%; in assay [6] (Compound Concentration 10.0 uM), 50.1%; in assay [7] (Compound Concentration 10.0 uM), -1.93%; in assay [8] (Compound Concentration 10.0 uM), 99.5%.
In the case of `COc1ccc2cc(OCC3(C(=O)O)CN(C(=O)c4ccc(F)cc4)C3)ccc2c1`, the inhibition in assay [4] (Compound Concentration 1.0 uM) was 4.5%; in assay [1] (Compound Concentration 1.0 uM) it was -2.53%; in assay [5] (Compound Concentration 1.0 uM), -0.296%; in assay [2] (Compound Concentration 1.0 uM), 0.467%; in assay [6] (Compound Concentration 1.0 uM), 76.6%; in assay [7] (Compound Concentration 1.0 uM), -4.88%. Also, the inhibition in assay [8] (Compound Concentration 1.0 uM) was 50.2%.
`C[C@@H]1CCNC(=O)c2cc3ccc(C(=O)Nc4nc5ccccc5n4CCCN(C)C)cc3n21`: the inhibition in assay [4] (Compound Concentration 1.0 uM) was 22.7%; in assay [1] (Compound Concentration 1.0 uM) it was -5.96%; in assay [5] (Compound Concentration 1.0 uM), 1.38%; in assay [2] (Compound Concentration 1.0 uM), 3.44%; in assay [6] (Compound Concentration 1.0 uM), -2.92%; in assay [7] (Compound Concentration 1.0 uM), 5.43%. The inhibition in assay [8] (Compound Concentration 1.0 uM) turned out to be 37.8%.
For the molecule `CC[C@H](CC(=O)O)n1c(=O)c2ncccc2n(Cc2cn(C)c3cc(C)cc(C)c23)c1=O`, the inhibition in assay [4] (Compound Concentration 10.0 uM) was -8.88%; in assay [1] (Compound Concentration 10.0 uM), -5.34%; in assay [5] (Compound Concentration 10.0 uM), 0.131%; in assay [2] (Compound Concentration 10.0 uM) it was 0.164%; in assay [6] (Compound Concentration 10.0 uM), 56.1%; in assay [7] (Compound Concentration 10.0 uM), 0.279%. Moreover, the inhibition in assay [8] (Compound Concentration 10.0 uM) was found to be 46.4%.
`Clc1ccc(-c2nc3sccn3c2/C=N/OCc2ccc(Cl)c(Cl)c2)cc1`: the inhibition was 12% in assay [4] (Compound Concentration 10.0 uM); 2.57% in assay [1] (Compound Concentration 10.0 uM); -2.04% in assay [5] (Compound Concentration 10.0 uM); 1.22% in assay [2] (Compound Concentration 10.0 uM); 15.6% in assay [6] (Compound Concentration 10.0 uM); 1.07% in assay [7] (Compound Concentration 10.0 uM). In addition, in assay [8] (Compound Concentration 10.0 uM), the inhibition was determined as 76.8%.
Turning to `Cc1c(Oc2ccc(F)cc2)c(OC(C)C)nn1-c1ccc(C2CC2)cn1`, the inhibition in assay [4] (Compound Concentration 1.0 uM) was 8.77%; in assay [1] (Compound Concentration 1.0 uM), 1.55%; in assay [5] (Compound Concentration 1.0 uM) it was 0.0471%; in assay [2] (Compound Concentration 1.0 uM), -5.44%; in assay [6] (Compound Concentration 1.0 uM) it was 59%; in assay [7] (Compound Concentration 1.0 uM), 10.1%. Also, the inhibition in assay [8] (Compound Concentration 1.0 uM) came out at 52%.
Take `COc1cccc(CNC(=O)c2nc3scc(COCc4ccc(C(=O)O)cc4)c3c(=O)[nH]2)c1`: the inhibition in assay [4] (Compound Concentration 1.0 uM) was 18.6%; in assay [1] (Compound Concentration 1.0 uM) it was -2.53%; in assay [5] (Compound Concentration 1.0 uM), -0.0979%; in assay [2] (Compound Concentration 1.0 uM), -1.5%; in assay [6] (Compound Concentration 1.0 uM) it was 56%; in assay [7] (Compound Concentration 1.0 uM), 12.5%. In addition, the inhibition in assay [8] (Compound Concentration 1.0 uM) is 99.5%.
As for `C[C@@H](c1cccc(C#N)c1)n1cc(Cl)cc(C(N)=O)c1=N`, the inhibition in assay [4] (Compound Concentration 10.0 uM) is 9.26%; in assay [1] (Compound Concentration 10.0 uM) it was 12%; in assay [5] (Compound Concentration 10.0 uM) it was 3.37%; in assay [2] (Compound Concentration 10.0 uM) it was -4.99%; in assay [6] (Compound Concentration 10.0 uM), 67%; in assay [7] (Compound Concentration 10.0 uM), 1.26%. The inhibition in assay [8] (Compound Concentration 10.0 uM) came to 46.5%.
As for `O=C(Nc1cnc(Oc2ccc(F)cc2)nc1)N1CCc2ncccc2[C@@H]1c1ccc(F)cc1`, the inhibition was 6.94% in assay [4] (Compound Concentration 10.0 uM); -3.04% in assay [1] (Compound Concentration 10.0 uM); -4.47% in assay [5] (Compound Concentration 10.0 uM); 70.5% in assay [6] (Compound Concentration 10.0 uM); -7.44% in assay [7] (Compound Concentration 10.0 uM); 49.8% in assay [8] (Compound Concentration 10.0 uM).
Regarding `Cc1ccc2[nH]c(CNCCCc3ccncc3)cc(=O)c2c1`, the inhibition in assay [4] (Compound Concentration 10.0 uM) is 7.47%; in assay [1] (Compound Concentration 10.0 uM), -5.59%; in assay [5] (Compound Concentration 10.0 uM), -0.701%; in assay [2] (Compound Concentration 10.0 uM), -2.56%; in assay [6] (Compound Concentration 10.0 uM), 56.8%; in assay [7] (Compound Concentration 10.0 uM), 5.93%. In addition, in assay [8] (Compound Concentration 10.0 uM), the inhibition stood at 35.6%.

The values above are taken from ChEMBL document CHEMBL5665443, “Enzyme Inhibitor Single Concentration assay results for EUbOPEN Chemogenomics Library” (2024).
